From ChEMBL document CHEMBL1201862, “PubChem BioAssay data set” (2004)
Active and inactive are the calls of the source.

Columns and labels:
[1] = target: T1, Kappa-type opioid receptor (Homo sapiens, UniProt P41145); assay type: functional
cells = assay type: functional
[2] = target: T2, Delta-type opioid receptor (Homo sapiens, UniProt P41143); assay: HTS Image-Based Screen for Antagonists of the DOR Receptor. [Related pubchem assays (depositor defined):AID1777, AID1785, AID1786, AID2133]; assay type: functional
T2 sequence (P41143 whole entry): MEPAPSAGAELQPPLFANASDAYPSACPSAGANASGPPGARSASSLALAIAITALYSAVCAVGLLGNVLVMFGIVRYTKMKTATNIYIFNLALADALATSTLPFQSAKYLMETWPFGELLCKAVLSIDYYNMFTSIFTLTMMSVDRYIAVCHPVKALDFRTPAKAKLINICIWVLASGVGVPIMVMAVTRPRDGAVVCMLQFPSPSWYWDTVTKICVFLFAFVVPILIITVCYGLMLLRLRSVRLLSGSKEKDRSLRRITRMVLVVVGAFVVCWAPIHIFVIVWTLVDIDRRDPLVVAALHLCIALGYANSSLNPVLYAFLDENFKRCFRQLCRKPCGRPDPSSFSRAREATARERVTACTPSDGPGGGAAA

[3] = target: T3, Replicative DNA helicase DnaB (Mycobacterium tuberculosis, UniProt P9WMR3); assay: DnaB intein splicing inhibitors, dose response, biochemical, cell-free fluorescence (AID 449749); assay type: functional
T3 sequence (P9WMR3 whole entry): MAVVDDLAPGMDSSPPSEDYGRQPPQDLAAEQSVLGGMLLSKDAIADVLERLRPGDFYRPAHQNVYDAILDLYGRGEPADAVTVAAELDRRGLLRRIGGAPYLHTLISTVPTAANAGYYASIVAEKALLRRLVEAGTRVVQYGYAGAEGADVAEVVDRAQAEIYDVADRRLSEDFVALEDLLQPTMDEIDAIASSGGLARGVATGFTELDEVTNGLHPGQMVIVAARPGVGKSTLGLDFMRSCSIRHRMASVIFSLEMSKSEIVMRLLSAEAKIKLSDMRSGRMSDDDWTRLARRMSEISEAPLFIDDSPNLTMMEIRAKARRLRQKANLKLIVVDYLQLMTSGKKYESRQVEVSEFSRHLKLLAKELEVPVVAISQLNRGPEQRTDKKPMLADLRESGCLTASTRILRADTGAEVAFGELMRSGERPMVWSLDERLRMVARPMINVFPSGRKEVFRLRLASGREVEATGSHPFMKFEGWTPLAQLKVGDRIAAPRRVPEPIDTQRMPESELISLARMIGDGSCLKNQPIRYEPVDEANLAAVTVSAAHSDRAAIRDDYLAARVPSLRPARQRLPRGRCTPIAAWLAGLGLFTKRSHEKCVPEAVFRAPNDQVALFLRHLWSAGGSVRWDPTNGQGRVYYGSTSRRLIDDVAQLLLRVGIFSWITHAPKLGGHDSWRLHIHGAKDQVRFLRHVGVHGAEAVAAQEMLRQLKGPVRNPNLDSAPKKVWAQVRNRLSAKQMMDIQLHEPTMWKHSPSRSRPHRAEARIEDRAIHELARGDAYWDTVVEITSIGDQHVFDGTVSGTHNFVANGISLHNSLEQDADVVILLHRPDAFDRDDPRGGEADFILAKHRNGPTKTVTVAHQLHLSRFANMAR

[4] = growth suppression of beta-catenin-knockout colon cells, dose response, cell-based, HCT116, human colon tumor (AID 1045); assay type: functional;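 further: HCT116 colon tumor cells with beta catenin knocked out; cells exposed to compound for 60 hours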
Fatty acid synthase [5] = target: T4, Fatty acid synthase (Homo sapiens, UniProt P49327); assay: FAS thioesterase domain inhibitors, dose response, biochemical, endpoint fluorescence intensity, uHTS hits (AID 624327); assay type: functional;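 further: fluorescence from hydrolysis of an O-methyl fluorescein acyl ester substrate by the enzyme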
T4 sequence (P49327 whole entry, the tested form may be a part): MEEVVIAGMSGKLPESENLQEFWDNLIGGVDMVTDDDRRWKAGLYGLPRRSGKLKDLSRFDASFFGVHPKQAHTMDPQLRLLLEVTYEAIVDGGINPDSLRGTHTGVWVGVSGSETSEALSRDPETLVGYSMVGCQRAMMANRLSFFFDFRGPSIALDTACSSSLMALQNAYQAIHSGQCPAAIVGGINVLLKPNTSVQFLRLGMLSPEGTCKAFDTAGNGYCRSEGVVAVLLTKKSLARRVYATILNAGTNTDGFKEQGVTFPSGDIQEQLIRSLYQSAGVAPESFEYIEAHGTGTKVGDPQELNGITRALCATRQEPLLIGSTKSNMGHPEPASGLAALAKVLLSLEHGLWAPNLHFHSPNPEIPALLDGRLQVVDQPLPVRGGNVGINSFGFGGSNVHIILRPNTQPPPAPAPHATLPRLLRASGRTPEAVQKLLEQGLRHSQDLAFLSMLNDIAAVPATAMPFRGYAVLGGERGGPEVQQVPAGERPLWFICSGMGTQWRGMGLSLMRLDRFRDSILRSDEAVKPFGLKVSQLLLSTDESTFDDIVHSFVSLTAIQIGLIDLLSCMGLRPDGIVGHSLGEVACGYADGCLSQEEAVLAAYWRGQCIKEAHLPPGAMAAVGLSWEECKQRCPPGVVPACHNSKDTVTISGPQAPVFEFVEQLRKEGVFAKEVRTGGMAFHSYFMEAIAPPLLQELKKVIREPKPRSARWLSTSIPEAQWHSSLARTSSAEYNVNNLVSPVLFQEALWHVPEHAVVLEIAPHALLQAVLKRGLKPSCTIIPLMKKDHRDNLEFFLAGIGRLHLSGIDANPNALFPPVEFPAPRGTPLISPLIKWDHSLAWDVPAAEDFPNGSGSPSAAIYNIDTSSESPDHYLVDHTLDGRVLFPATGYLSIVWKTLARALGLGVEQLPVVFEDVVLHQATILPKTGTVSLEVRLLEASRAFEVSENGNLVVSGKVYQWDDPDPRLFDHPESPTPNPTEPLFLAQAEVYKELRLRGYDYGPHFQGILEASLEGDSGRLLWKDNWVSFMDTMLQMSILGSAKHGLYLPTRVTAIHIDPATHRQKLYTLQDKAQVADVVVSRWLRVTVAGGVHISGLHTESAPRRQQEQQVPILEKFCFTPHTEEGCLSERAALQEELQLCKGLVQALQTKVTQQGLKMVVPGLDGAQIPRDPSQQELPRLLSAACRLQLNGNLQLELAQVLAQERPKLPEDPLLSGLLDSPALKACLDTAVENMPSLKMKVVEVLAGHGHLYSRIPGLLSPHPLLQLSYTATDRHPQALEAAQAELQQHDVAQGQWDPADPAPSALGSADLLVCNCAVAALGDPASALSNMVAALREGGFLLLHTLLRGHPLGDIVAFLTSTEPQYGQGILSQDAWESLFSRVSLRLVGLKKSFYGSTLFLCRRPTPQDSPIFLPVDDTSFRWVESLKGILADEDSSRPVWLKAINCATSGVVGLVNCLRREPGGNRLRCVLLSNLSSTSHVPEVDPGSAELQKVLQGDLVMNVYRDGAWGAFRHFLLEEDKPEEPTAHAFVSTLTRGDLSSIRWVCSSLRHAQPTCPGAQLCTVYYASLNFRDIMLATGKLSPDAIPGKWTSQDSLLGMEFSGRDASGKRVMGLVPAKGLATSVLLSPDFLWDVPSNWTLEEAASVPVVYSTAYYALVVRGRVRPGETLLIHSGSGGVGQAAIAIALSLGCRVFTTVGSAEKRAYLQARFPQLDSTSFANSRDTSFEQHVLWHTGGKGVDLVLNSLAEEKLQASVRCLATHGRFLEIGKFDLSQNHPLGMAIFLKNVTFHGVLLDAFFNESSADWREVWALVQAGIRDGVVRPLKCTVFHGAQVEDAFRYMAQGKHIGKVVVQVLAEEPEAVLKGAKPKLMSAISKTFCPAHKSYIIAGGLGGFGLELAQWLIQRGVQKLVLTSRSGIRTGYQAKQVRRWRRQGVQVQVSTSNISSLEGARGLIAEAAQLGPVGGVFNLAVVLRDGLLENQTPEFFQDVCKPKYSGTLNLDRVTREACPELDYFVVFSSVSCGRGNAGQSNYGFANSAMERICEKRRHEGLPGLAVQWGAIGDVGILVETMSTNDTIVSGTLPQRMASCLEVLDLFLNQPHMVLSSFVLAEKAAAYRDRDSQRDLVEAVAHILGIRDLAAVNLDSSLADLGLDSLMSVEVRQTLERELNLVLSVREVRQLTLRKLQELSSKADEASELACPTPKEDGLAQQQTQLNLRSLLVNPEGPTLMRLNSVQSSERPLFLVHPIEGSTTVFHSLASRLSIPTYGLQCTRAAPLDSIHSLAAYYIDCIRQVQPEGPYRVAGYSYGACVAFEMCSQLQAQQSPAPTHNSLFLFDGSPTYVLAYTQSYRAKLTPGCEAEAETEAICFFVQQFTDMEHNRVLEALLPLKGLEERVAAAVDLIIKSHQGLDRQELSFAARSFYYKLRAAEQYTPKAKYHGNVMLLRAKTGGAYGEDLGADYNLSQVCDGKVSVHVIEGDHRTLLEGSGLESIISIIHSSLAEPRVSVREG

[6] = target: T1, Kappa-type opioid receptor; assay type: functional; remark: listed apart in the source
[7] = target: T2, Delta-type opioid receptor; assay: HTS Image-Based Screen for Agonists of the DOR Receptor. [Related pubchem assays (depositor defined):AID1777, AID1786, AID2133]; assay type: functional
Mu-type opioid receptor = Mu-type opioid receptor (Homo sapiens, UniProt P35372); assay: HTS Image-Based Screen for Agonists of the MOR Receptor. [Related pubchem assays (depositor defined):AID1777, AID1785, AID1786, AID2133]; assay type: functional;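 further: imaging of beta-arrestin GFP recruitment into spots after receptor activation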
Chain of Mu-type opioid receptor (P35372 whole entry): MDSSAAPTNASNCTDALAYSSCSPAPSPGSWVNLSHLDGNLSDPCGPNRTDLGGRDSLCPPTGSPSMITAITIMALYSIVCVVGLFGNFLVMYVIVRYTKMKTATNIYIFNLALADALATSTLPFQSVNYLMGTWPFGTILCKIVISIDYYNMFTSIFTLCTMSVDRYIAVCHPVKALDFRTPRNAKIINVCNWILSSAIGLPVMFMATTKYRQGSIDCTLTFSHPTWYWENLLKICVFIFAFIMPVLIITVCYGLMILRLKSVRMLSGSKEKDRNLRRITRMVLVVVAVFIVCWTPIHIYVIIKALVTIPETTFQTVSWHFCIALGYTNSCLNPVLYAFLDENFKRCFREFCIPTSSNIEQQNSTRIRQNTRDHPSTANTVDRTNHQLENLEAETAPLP

[8] = growth suppression of PTEN-null colon cells, dose response, cell-based, HCT116 PTEN knockout (AID 1047); assay type: functional;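 further: HCT116 colon tumor cells with PTEN knocked out; cells exposed to compound for 60 hours before readout; potency for loss of cell viability measured by luminescence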
[9] = THP-1 cell cytotoxicity, dose response, cytotoxicity control for non-replicating M. tuberculosis project (AID 489025); assay type: functional
BJ = assay: cytotoxicity toward Ras-transformed BJeLR fibroblasts, dose response, cell-based, alamar blue fluorescence, cherrypicked samples (AID 2631); assay type: functional; conditions: Homo sapiens;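 further: confirmatory dose-response assay in RAS-dependent BJ fibroblasts engineered with TERT, LT and ST, with cytotoxicity read by fluorescence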
[10] = Vero E6 cell cytotoxicity, dose response, cytotoxicity control for non-replicating M. tuberculosis project, secondary assay (AID 492998); assay type: functional, VeroE6; conditions: Vero C1008
CHO = assay: cytotoxicity in TLR9-MyD88 CHO cells, dose response, cytotoxicity control for TLR9-MyD88 binding inhibitor project, cell-based, luminescence (AID 588339); assay type: functional, hamster; conditions: Cricetulus griseus;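 further: CHO cells stably coexpressing TLR9 and MyD88 fusions from primary screen; compound exposure lasted 48 hours before viability readout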
[11] = control 3'UTR Renilla luciferase suppression, dose response, counter-screen for Shn3 inhibitor project, cell-based, Clone20-Shn3RL, cherry-picked (AID 624133); assay type: functional
[12] = HepG2 cell cytotoxicity, dose response, cytotoxicity control for Shn3 inhibitor project, CellTiter-Glo, cherry-picked (AID 624134); assay type: functional, cell-based
Protein RecA = target: T5, Protein RecA (Mycobacterium tuberculosis, UniProt P9WHJ3); assay: Fluorescence Cell-Free Homogeneous Dose Retest to Identify Inhibitors of RecA-Intein Splicing Activity. [Related pubchem assays (depositor defined):AID2097, AID2223, AID489010, AID492950]; assay type: functional
T5 sequence (P9WHJ3 whole entry): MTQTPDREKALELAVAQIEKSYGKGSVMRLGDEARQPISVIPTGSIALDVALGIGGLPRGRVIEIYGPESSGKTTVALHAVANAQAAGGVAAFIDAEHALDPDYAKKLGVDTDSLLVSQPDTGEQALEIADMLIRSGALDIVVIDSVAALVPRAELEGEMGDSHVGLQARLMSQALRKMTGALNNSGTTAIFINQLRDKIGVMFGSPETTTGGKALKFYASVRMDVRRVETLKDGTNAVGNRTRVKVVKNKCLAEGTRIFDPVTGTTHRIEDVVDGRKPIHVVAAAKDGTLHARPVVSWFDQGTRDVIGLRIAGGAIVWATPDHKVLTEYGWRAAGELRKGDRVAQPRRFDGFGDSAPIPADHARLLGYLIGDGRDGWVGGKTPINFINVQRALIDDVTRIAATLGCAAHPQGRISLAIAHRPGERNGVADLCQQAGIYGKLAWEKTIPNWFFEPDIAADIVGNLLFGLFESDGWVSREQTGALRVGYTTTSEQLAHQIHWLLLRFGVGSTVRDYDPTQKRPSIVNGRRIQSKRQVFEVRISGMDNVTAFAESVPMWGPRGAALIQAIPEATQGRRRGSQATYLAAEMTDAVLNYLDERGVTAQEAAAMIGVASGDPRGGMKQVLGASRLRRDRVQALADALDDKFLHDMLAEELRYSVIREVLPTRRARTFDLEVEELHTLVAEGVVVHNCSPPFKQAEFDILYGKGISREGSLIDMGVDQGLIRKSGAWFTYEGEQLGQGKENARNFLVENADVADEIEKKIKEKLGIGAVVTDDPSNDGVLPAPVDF

[13] = target: Bifunctional protein GlmU (Mycobacterium tuberculosis, UniProt P9WMN3); assay: Inhibitors of Mycobacterial Glucosamine-1-phosphate acetyl transferase (GlmU). Secondary screen.; set-up: species or system Mycobacterium tuberculosis H37Rv
[14] = HepG2 cell cytotoxicity, dose response, cytotoxicity control for non-replicating M. tuberculosis project (AID 489018); assay type: functional; conditions: Mycobacterium tuberculosis
Fatty acid synthase [15] = target: T4, Fatty acid synthase; assay: FAS thioesterase domain inhibitors, dose response, biochemical, kinetic fluorescence intensity (AID 624326); assay type: functional;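 further: rate of fluorescence rise from hydrolysis of a fluorogenic O-methyl fluorescein ester substrate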
[16] = Shn3 3'UTR reporter inhibitors, dose response, cell-based, Clone20 osteoblasts, firefly luciferase, cherry-picked (AID 624132); assay type: functional;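 further: firefly luciferase luminescence from reporter carrying the Shn3 3'UTR in osteoblasts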
Beta Lactamase = Beta Lactamase (Pseudomonas aeruginosa, UniProt Q932Y6); assay: beta-lactamase reporter inhibitor potency, dose response, artefact control for TLR9-MyD88 binding inhibitor project, BLA reporter cells, FRET fluorescence (AID 588341); assay type: cell-based;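 further: cell based assay in CHO-K1 cells stably expressing beta-lactamase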
Chain of Beta Lactamase (Q932Y6 whole entry): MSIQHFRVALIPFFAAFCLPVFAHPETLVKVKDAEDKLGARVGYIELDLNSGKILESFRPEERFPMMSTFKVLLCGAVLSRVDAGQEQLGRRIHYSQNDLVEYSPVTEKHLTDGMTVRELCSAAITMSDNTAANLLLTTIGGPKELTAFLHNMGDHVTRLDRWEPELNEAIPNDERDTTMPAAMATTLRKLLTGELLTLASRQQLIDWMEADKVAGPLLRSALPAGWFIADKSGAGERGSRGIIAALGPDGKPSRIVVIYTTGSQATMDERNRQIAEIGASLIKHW

Beta-galactosidase = Beta-galactosidase (Escherichia coli, UniProt Q8VNN2); assay type: functional
Chain of Beta-galactosidase (Q8VNN2 whole entry): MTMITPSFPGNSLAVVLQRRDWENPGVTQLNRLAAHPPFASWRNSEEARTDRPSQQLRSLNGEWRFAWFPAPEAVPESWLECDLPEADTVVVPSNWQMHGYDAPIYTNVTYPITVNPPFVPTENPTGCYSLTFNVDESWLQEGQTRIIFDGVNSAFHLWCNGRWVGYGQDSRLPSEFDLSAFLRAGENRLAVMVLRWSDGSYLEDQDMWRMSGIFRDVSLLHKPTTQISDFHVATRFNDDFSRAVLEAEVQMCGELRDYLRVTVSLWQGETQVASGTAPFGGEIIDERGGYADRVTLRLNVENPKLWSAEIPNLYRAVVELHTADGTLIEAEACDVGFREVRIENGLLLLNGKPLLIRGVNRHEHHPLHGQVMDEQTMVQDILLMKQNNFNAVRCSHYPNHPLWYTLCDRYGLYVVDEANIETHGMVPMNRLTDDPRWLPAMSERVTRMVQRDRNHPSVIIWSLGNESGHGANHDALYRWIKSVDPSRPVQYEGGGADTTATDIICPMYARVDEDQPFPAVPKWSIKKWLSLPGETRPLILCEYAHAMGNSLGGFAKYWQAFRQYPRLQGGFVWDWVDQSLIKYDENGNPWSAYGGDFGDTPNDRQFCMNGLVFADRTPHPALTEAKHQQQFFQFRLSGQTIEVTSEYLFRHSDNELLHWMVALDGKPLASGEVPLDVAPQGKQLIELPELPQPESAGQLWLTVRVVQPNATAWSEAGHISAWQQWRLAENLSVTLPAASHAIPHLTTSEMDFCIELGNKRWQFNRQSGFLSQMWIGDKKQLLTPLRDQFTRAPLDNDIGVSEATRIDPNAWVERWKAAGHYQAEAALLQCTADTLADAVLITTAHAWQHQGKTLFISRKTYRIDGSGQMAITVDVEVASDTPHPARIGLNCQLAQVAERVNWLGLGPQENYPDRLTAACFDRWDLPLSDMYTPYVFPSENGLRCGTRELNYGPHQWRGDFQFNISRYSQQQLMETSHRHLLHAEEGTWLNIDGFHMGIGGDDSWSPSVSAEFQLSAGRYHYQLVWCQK

[17] = Luminescence Cell-Based Dose Retest to Confirm Inhibitors of Cancer Stem Cells. [Related pubchem assays (depositor defined):AID2717, AID2721]; assay type: functional; conditions: Homo sapiens
[18] = cytotoxicity in HMLE control line with eGFP shRNA, dose response, counter-screen for HMLE_sh_ECad selective toxicity project, cell-based, HMLE_sh_eGFP, luminescence (AID 463074); assay type: functional, Homo sapiens;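 further: HMLE human mammary epithelial cells expressing control shRNA against eGFP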
HeLa = assay: HeLa cell cytotoxicity, dose response, cytotoxicity control, 24 h, cherry-picked samples (AID 504726); assay type: functional, cell-based; conditions: Homo sapiens;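 further: potency for cytotoxicity as loss of luminescence signal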
Escherichia coli [19] = assay: microbe, parasite or virus in culture
[20] = target: T6, RNA-binding protein pos-1 (Caenorhabditis elegans, UniProt G5EF15); assay: inhibitors of POS-1/mex-3 RNA binding, dose response, biochemical, fluorescence polarization (AID 1964);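 further: purified POS-1 fused to maltose binding protein made in E. coli; potency of compounds blocking POS-1 binding to fluorescent RNA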
T6 sequence (G5EF15 whole entry): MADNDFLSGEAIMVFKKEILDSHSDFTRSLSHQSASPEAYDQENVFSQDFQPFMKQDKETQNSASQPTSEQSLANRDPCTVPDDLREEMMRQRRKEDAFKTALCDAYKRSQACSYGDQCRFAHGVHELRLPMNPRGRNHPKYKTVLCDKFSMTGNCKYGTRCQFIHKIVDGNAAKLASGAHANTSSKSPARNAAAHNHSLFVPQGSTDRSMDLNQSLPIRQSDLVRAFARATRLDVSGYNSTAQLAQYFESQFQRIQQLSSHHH

Escherichia coli [21] = assay: microbe, parasite or virus in culture; remark: listed apart in the source
[22] = target: T7, Zinc finger protein mex-5 (Caenorhabditis elegans, UniProt Q9XUB2); assay: MEX-5/TCR-2 RNA interaction inhibitors, dose response, biochemical, C. elegans, fluorescence polarization (AID 1960)
T7 sequence (Q9XUB2 whole entry): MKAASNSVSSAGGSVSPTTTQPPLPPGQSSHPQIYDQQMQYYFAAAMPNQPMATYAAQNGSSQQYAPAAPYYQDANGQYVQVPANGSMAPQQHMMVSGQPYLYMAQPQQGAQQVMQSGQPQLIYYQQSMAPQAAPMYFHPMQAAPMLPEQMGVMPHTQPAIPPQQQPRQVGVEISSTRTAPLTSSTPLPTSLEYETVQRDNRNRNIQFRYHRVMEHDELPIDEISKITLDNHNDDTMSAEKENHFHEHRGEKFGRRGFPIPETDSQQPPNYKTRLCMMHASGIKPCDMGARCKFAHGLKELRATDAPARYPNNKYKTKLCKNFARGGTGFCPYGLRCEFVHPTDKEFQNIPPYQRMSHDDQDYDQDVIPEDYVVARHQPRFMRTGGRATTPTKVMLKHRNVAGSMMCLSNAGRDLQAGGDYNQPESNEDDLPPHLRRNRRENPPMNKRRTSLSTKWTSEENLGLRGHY

T1 sequence (P41145 whole entry): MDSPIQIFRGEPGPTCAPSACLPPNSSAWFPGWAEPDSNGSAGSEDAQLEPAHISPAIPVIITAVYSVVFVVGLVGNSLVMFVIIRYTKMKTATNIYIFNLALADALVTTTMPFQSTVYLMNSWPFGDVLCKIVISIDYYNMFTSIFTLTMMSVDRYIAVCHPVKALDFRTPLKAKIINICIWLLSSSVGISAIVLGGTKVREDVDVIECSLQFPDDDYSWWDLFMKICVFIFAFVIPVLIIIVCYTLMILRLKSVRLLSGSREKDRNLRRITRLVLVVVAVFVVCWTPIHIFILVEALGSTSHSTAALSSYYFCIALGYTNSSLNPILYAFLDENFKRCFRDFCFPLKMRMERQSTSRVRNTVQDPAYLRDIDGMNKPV

CCCC(=O)OCCNc1cc(Sc2nccn2C)c2nonc2c1[N+](=O)[O-]
30.5 µM: IC50 [6]
inactive: IC50 [2] > 32 µM | EC50 [7] > 32 µM | EC50 (Mu-type opioid receptor) > 32 µM | EC50 (Beta-galactosidase) > 31.5 µM
active: IC50 [1] 5.47 µM | IC50 (cells) 6.13 µM | AC50 [3] 1.14 µM | EC50 [4] 4.63 µM | IC50 (Fatty acid synthase [5]) 5.11 µM | EC50 [8] 6.43 µM | CC50 [9] 19.2 µM | EC50 (BJ) 2.82 µM | CC50 [10] 16.6 µM | IC50 (CHO) 3.21 µM | AC50 [11] 12.2 µM | AC50 [12] 15.7 µM | EC50 (Protein RecA) 1.27 µM | IC50 [13] 136 µM | CC50 [14] 13.3 µM | IC50 (Fatty acid synthase [15]) 2.57 µM | AC50 [16] 7.22 µM | IC50 (Beta Lactamase) 8.31 µM

O=C(NCCCn1ccnc1)c1cccc(S(=O)(=O)N2CCCCCC2)c1
active: AC50 [17] 18.9 µM | AC50 [18] 27.2 µM

CN(C)C1C(=O)C(C(N)=O)=C(O)C2(O)C(O)=C3C(=O)c4c(O)cccc4C(C)(O)C3C(O)C12 (stereo not given)
inconclusive: EC50 [22] 29.9 µM
active: AC50 (HeLa) 54.2 µM | AC50 (Escherichia coli [19]) 14.9 µM | EC50 [20] 65.8 µM | AC50 (Escherichia coli [21]) < 0.3 µM
